One data set deals with GSK3β (Homo sapiens, UniProt P49841). Nature of the data set: Inhibitory activity against GSK3β (33P-ATP phosphorylation of prephosphorylated GS1 peptide, two protocols). In kind it is biochemical. As to conditions: first or second protocol not specified. As for the experimental part: Two different protocols can be used.
In a first protocol: 7.5 μM of prephosphorylated GS1 peptide and 10 μM ATP (containing 300,000 cpm of 33P-ATP) were incubated in 25 mM Tris-HCl, pH 7.5, 0.6 mM DTT, 6 mM MgCl2, 0.6 mM EGTA, 0.05 mg/ml BSA buffer for 1 hour at room temperature in the presence of GSK3beta (total reaction volume: 100 microliters).
In a second protocol: 4.1 μM of prephosphorylated GS1 peptide and 42 μM ATP (containing 260,000 cpm 33P-ATP) were incubated in 80 mM Mes-NaOH, pH 6.5, 1 mM Mg acetate, 0.5 mM EGTA, 5 mM 2-mercaptoethanol, 0.02% Tween 20, 10% glycerol buffer for 2 hours at room temperature in the presence of GSK3beta. Inhibitors were solubilized in DMSO (final solvent concentration in the reaction medium, 1%).
The reaction was stopped with 100 microliters of a solution made of 25 g polyphosphoric acid (85% P2O5), 126 ml 85% H3PO4, H2O to 500 ml and then diluted to 1:100 before use. An aliquot of the reaction mixture was then transferred to Whatman P81 cation exchange filters and rinsed with the solution described above. Incorporated 33P radioactivity was determined by liquid scintillation spectrometry.
The phosphorylated GS-1 peptide had the following sequence NH2-[…](P)EDEE-COOH. (Woodgett, J. R. (1989) Analytical Biochemistry 180, 237-241.

Each structure is given as a SMILES string. Counter-ions that a name gives are not always drawn.

Sequence of GSK3β (P49841 whole entry): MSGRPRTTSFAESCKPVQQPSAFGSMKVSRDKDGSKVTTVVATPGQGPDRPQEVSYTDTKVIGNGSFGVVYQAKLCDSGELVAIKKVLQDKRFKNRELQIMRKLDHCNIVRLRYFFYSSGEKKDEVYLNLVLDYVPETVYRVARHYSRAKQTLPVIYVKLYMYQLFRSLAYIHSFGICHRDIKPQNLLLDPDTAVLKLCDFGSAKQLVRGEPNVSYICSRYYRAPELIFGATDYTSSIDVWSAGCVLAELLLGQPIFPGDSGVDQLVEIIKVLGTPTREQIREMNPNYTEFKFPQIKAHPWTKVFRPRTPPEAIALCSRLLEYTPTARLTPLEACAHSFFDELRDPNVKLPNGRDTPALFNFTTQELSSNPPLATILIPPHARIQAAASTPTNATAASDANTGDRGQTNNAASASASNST

For orientation: melting point means the temperature, or range, at which the solid turns liquid. In turn, `O=C(CN1c2nc(-c3ccncc3)cc(=O)n2CCC1C1CCNCC1)c1cccc(Br)c1` (racemic) (as salt: hydrochloride) [compound 8, (−)9-[2-Oxo-2-(3-bromo-phenyl)ethyl]-8-(4-piperidinyl)-2-(4-pyridinyl)-6,7,8,9-tetrahydro-4H-pyrimido[1,2-a]pyrimidin-4-one] yielded a melting point of 255 to 257 °C.

In general, IC50 refers to the point on the concentration scale where inhibition reaches its midpoint. Low values mean inhibition by little substance, high ones a need for much substance. In turn, `O=C(CN1c2nc(-c3ccncc3)cc(=O)n2CCC1C1CCNCC1)c1ccccc1` (racemic) [Compound No. 3, (+/−)-9-(2-Oxo-2-phenylethyl)-8-(4-piperidinyl)-2-(4-pyridinyl)-6,7,8,9-tetrahydro-4H-pyrimido[1,2-a]pyrimidin-4-one] had a half-maximal inhibitory concentration (IC50) at GSK3β of 12 nM.

As for `COc1cc(F)ccc1CCN1c2nc(-c3ccncc3)cc(=O)n2CCC1C1CCNCC1` (racemic) [compound 7, (+/−)9-[2-(4-fluoro-2-methoxy-phenyl)ethyl]-8-(4-piperidinyl)-2-(4-pyridinyl)-6,7,8,9-tetrahydro-4H-pyrimido[1,2-a]pyrimidin-4-one], the melting point fell in the range of 270 to 272 °C.

The values above are taken from patent publication US20090281121A1, “SUBSTITUTED 8-PIPERIDINYL-2-PYRIDINYL-PYRIMIDO[1,2-a] PYRIMIDIN-6-ONE AND 8-PIPERIDINYL-2-PYRIMIDINYL-PYRIMIDO[1,2-a] PYRIMIDIN-6-ONE DERIVATIVES” (SANOFI-AVENTIS, priority 2006, published 2009).
